Results as given in doi:10.1101/2023.11.24.568596v1 (biorxiv, 2023).
One block for each compound: values may come before it.

Key:
Conditions in all cases: binder
BMPR2 = molecular target: T1, BMPR2 (Homo sapiens, UniProt Q13873)
T1 sequence (Q13873 1-1038): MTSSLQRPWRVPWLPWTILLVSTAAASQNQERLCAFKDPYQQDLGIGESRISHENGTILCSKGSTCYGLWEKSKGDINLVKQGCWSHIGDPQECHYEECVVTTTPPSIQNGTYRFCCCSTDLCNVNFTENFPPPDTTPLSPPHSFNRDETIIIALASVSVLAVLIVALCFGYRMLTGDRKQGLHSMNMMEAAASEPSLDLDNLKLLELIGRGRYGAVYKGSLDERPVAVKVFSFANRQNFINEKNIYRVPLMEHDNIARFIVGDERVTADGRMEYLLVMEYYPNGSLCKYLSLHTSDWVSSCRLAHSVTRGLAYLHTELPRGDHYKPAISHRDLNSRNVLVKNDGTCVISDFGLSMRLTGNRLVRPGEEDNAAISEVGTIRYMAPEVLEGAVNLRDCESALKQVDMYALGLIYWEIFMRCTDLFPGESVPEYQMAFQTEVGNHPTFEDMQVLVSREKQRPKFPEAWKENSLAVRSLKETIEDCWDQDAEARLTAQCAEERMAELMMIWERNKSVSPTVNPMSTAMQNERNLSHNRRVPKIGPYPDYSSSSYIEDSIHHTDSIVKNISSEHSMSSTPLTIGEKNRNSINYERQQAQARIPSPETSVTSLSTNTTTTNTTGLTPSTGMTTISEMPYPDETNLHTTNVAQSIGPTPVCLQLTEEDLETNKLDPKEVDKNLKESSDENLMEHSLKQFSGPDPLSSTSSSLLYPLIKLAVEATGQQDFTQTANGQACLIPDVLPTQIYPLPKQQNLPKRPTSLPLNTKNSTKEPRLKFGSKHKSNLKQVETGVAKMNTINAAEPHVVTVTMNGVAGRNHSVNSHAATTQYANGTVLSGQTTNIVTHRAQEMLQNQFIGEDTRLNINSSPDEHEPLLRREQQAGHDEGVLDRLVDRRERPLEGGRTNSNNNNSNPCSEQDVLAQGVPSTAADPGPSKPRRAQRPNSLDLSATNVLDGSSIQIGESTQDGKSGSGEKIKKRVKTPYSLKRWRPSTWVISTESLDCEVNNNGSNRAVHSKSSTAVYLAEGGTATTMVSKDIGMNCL

CaMK2b = CaMK2b (Homo sapiens, UniProt Q13554)
Chain of CaMK2b (Q13554 whole entry): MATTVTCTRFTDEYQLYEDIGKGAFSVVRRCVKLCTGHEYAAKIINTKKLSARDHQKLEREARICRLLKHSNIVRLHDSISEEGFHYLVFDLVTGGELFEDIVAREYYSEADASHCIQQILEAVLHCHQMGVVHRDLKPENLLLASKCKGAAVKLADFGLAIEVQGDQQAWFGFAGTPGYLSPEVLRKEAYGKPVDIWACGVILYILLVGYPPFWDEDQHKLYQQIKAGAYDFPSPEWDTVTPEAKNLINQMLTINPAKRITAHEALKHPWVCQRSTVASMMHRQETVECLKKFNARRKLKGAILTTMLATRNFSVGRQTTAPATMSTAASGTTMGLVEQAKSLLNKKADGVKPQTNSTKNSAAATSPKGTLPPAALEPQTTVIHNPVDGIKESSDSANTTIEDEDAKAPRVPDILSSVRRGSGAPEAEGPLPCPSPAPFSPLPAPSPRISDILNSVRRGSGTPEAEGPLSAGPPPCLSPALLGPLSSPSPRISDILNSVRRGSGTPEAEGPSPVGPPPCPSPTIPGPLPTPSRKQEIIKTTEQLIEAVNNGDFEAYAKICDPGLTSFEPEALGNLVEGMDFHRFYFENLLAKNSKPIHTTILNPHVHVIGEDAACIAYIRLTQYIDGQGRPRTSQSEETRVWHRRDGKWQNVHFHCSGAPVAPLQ

DCAMKL1 = molecular target: T2, DCAMKL1 (Homo sapiens, UniProt O15075)
T2 sequence (O15075 1-740): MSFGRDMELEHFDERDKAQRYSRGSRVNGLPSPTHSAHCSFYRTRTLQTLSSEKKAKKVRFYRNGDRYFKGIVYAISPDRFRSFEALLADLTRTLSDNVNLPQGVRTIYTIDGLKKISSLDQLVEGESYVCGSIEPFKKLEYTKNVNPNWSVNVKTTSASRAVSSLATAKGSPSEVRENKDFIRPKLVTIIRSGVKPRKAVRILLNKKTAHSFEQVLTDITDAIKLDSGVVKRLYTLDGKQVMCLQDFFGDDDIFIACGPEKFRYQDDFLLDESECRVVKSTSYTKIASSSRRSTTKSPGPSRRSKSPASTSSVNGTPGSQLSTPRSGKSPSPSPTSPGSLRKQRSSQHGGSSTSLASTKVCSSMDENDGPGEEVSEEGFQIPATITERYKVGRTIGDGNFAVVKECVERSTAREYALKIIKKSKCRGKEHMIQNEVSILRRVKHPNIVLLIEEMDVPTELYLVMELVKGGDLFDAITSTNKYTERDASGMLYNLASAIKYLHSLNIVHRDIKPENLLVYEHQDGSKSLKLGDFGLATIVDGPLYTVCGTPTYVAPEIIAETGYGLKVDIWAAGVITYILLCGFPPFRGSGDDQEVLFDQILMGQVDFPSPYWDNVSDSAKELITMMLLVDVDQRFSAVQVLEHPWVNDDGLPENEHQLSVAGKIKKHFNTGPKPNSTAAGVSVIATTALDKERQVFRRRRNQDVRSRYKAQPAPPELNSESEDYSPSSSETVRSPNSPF

EphA5 = EphA5 (Homo sapiens, UniProt P54756)
Chain of EphA5 (P54756 whole entry): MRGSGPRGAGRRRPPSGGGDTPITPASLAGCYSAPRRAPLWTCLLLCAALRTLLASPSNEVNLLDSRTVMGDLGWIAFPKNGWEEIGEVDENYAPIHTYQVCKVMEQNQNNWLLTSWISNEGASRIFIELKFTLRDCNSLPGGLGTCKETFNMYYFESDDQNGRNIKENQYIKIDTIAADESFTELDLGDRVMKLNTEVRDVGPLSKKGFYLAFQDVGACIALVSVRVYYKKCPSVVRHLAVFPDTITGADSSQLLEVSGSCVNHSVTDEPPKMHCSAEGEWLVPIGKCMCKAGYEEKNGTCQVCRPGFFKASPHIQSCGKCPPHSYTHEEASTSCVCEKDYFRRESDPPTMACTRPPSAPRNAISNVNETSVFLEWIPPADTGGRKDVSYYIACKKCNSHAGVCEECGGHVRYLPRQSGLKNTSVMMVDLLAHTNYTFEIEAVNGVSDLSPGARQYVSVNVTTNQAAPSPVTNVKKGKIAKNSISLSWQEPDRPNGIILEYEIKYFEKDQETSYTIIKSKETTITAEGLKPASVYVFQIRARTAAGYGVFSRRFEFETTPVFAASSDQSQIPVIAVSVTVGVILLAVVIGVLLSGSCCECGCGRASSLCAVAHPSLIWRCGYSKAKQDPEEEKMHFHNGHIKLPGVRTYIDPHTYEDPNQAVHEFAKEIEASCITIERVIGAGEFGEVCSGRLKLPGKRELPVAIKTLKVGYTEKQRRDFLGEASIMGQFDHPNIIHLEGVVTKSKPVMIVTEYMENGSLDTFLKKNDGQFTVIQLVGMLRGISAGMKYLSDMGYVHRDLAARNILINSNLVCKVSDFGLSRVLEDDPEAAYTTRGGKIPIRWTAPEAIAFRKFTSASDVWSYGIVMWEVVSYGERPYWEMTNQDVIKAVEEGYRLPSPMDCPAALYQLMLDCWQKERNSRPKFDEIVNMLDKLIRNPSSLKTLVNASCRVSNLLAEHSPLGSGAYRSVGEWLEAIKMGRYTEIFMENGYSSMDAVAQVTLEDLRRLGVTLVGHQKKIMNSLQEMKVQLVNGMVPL

FES = FES (Homo sapiens, UniProt P07332)
Chain of FES (P07332 whole entry): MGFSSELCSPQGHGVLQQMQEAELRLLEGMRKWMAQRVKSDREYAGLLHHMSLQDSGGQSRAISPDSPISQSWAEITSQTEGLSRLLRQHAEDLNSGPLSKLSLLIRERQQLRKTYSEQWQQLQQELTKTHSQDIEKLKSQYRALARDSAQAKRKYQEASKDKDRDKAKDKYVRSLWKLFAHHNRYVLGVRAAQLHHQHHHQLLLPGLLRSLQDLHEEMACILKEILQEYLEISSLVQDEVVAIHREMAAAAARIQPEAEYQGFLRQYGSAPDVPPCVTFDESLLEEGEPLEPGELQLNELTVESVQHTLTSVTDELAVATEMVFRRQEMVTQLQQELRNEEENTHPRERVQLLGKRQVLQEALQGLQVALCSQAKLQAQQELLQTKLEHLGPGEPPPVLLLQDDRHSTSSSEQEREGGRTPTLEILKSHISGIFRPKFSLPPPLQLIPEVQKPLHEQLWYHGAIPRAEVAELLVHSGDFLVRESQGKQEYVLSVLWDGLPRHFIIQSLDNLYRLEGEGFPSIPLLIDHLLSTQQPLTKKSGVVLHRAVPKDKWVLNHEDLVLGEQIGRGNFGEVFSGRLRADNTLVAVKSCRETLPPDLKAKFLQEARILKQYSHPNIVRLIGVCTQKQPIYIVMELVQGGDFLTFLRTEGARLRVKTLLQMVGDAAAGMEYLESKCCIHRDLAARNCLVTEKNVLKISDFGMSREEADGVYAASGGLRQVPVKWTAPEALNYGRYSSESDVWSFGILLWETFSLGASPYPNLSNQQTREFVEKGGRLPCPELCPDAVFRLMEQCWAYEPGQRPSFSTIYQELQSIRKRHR

MARK3 = MARK3 (Homo sapiens, UniProt P27448)
Chain of MARK3 (P27448 whole entry): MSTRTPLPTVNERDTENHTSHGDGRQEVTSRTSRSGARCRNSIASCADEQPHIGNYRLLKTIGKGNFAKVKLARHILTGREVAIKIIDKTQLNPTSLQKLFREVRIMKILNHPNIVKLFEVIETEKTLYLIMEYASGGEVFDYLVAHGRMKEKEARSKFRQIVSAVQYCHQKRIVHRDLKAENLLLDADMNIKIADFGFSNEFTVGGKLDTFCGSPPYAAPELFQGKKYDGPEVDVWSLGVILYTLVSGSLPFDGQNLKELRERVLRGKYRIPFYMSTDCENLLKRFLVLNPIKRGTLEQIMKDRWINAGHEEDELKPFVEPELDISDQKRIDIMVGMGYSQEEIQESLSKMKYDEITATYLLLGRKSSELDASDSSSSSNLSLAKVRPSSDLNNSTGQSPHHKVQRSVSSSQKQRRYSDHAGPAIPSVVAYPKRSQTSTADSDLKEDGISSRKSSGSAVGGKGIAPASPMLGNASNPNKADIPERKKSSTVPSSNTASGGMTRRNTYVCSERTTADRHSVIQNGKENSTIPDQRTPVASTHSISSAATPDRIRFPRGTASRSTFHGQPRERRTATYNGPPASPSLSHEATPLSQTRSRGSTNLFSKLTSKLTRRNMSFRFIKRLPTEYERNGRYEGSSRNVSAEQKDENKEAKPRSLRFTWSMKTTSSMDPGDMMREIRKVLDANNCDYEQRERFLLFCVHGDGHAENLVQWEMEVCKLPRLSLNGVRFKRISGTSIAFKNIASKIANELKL

MARK4 = molecular target: T3, MARK4 (Homo sapiens, UniProt Q96L34)
T3 sequence (Q96L34 1-752): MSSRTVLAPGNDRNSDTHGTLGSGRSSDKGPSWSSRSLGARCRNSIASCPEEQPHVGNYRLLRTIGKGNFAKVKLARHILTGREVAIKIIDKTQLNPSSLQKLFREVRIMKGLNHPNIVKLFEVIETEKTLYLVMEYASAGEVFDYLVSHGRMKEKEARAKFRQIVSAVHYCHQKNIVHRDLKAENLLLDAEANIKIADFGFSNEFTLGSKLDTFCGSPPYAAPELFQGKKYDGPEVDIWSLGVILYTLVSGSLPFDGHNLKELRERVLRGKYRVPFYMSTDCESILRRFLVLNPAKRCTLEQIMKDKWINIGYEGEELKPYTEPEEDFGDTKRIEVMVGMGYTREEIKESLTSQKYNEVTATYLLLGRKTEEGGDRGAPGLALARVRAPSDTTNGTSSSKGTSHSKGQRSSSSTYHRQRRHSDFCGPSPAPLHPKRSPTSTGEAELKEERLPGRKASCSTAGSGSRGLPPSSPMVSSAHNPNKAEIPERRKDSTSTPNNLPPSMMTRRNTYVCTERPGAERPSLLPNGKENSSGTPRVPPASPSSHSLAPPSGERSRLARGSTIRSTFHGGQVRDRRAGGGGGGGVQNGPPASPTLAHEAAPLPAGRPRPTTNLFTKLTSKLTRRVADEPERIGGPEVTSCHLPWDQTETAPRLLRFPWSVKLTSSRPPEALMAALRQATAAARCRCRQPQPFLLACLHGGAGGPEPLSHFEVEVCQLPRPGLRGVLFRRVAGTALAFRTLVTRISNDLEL

dTm 33 (BMPR2): -0.1 °C
dTm 33 (CaMK2b): -0.2 °C
dTm 33 (DCAMKL1): 1.2 °C
dTm 33 (EphA5): 6.8 °C
dTm 33 (FES): 8.9 °C
dTm 33 (MARK3): 11.5 °C
dTm 33 (MARK4): 10.3 °C
SMILES: Cc1cccc(-c2ccc(-c3cc4cnc(Nc5ccc(F)c(CO)c5)nc4n(CCCCN)c3=O)c(Cl)c2)n1 [compound 33, 8-(4-Aminobutyl)-6-(2-chloro-4-(6-methylpyridin-2-yl)phenyl)-2-((4-fluoro-3-(hydroxymethyl)phenyl)amino)pyrido[2,3-d]pyrimidin-7(8H)-one]

dTm 35 (BMPR2): -1.0 °C
dTm 35 (CaMK2b): -1.4 °C
dTm 35 (DCAMKL1): 2.0 °C
dTm 35 (EphA5): 4.2 °C
dTm 35 (FES): 8.3 °C
dTm 35 (MARK3): 6.9 °C
dTm 35 (MARK4): 6.6 °C
SMILES: COc1cc(N2CCOCC2)ccc1Nc1ncc2cc(-c3ccc(-c4cccc(C)n4)cc3Cl)c(=O)n(CCCCN)c2n1 [compound 35, 8-(4-Aminobutyl)-6-(2-chloro-4-(6-methylpyridin-2-yl)phenyl)-2-((2-methoxy-4-morpholino-phenyl)amino)pyrido[2,3-d]pyrimidin-7(8H)-one]

dTm 36 (BMPR2): -0.2 °C
dTm 36 (CaMK2b): -0.6 °C
dTm 36 (DCAMKL1): 1.3 °C
dTm 36 (EphA5): 3.5 °C
dTm 36 (FES): 9.0 °C
dTm 36 (MARK3): 8.5 °C
dTm 36 (MARK4): 7.4 °C
SMILES: COc1cc(N2CCN(C)CC2)ccc1Nc1ncc2cc(-c3ccc(-c4cccc(C)n4)cc3Cl)c(=O)n(CCCCN)c2n1 [compound 36, 8-(4-Aminobutyl)-6-(2-chloro-4-(6-methylpyridin-2-yl)phenyl)-2-((2-methoxy-4-(4-methylpiperazin-1-yl)phenyl)amino)pyrido[2,3-d]pyrimidin-7(8H)-one]

dTm 34 (BMPR2): 0.0 °C
dTm 34 (CaMK2b): -0.8 °C
dTm 34 (DCAMKL1): -0.3 °C
dTm 34 (EphA5): 3.2 °C
dTm 34 (FES): 7.6 °C
dTm 34 (MARK3): 5.1 °C
dTm 34 (MARK4): 4.6 °C
SMILES: COc1ccc(O)c(Nc2ncc3cc(-c4ccc(-c5cccc(C)n5)cc4Cl)c(=O)n(CCCCN)c3n2)c1 [compound 34, 8-(4-Aminobutyl)-6-(2-chloro-4-(6-methylpyridin-2-yl)phenyl)-2-((2-hydroxy-5-methoxy-phenyl)amino)pyrido[2,3-d]pyrimidin-7(8H)-one]
